Eight compounds from ChEMBL document CHEMBL1131895, “Proteasome inhibition by the natural products epoxomicin and dihydroeponemycin: insights into specificity and potency” (Bioorg Med Chem Lett, 1999) can be followed below.

Holding throughout (format): functional
Assay [1] is described as follows: Inhibition of the chymotrypsin-like activity.
The nature of assay [2]: Inhibition of the PGPH-like activity.
A short description of assay [3]: Antiproliferative activity of the compound.
Assay [4] in a line: Inhibition of the trypsin-like activity.

As usually defined, the IC50 is the midpoint of a concentration-inhibition curve. A higher IC50 goes with weaker potency. As to `CC(C)CCCCC(=O)NC(CO)C(=O)N[C@H](CC(C)C)C(=O)[C@@]1(CO)CO1` (some centres not stated), the k obs / 1 is 58 M⁻¹ s⁻¹ in assay [1], 175 M⁻¹ s⁻¹ in assay [2] and 17 M⁻¹ s⁻¹ in assay [4]. Also, the half-inhibitory concentration (IC50) in assay [3] was found to be 0.1 µM.

For `CC(C)CCCCC(=O)NC(C(=O)NC(CC(C)C)C(=O)[C@@]1(C)CO1)[C@@H](C)O` (some centres not stated), the k obs / 1 in assay [1] came to 25 M⁻¹ s⁻¹; in assay [2], 45 M⁻¹ s⁻¹; in assay [4] it was 4 M⁻¹ s⁻¹. In addition, 0.52 µM corresponded to half-maximal inhibition in assay [3] (IC50).

Turning to `CC(C)CCCCC(=O)NC(C(=O)NC(CC(C)C)C(=O)[C@@]1(CO)CO1)[C@@H](C)O` (some centres not stated), the k obs / 1 in assay [1] turned out to be 22 M⁻¹ s⁻¹; in assay [2], 50 M⁻¹ s⁻¹; in assay [4], 5 M⁻¹ s⁻¹. The IC50 in assay [3] is 0.85 µM.

With `CC(C)CCCCC(=O)NC(CO)C(=O)N[C@H](CC(C)C)C(=O)[C@@]1(C)CO1` (some centres not stated), the figures for the k obs / 1 in assay [1], in assay [2] and in assay [4] were 34 M⁻¹ s⁻¹, 57 M⁻¹ s⁻¹ and 5 M⁻¹ s⁻¹, respectively. In assay [3], this compound registered an IC50 of 0.26 µM.

For `CC[C@H](C)[C@H](NC(=O)[C@H]([C@@H](C)CC)N(C)C(C)=O)C(=O)NC(CO)C(=O)NC(CC(C)C)C(=O)[C@@]1(CO)CO1` (single isomer, unassigned), the k obs / 1 in assay [1] amounted to 17000 M⁻¹ s⁻¹; in assay [2], 35 M⁻¹ s⁻¹; in assay [4], 470 M⁻¹ s⁻¹. This compound displayed an IC50 in assay [3] of 0.14 µM.

As to `CC[C@H](C)[C@H](NC(=O)[C@H]([C@@H](C)CC)N(C)C(C)=O)C(=O)NC(C(=O)NC(CC(C)C)C(=O)[C@@]1(CO)CO1)[C@@H](C)O` (single isomer, unassigned), the k obs / 1 in assay [1] turned out to be 18000 M⁻¹ s⁻¹; in assay [2], 37 M⁻¹ s⁻¹; in assay [4], 290 M⁻¹ s⁻¹. The same compound registered an IC50 in assay [3] of 0.06 µM.

Turning to `CC[C@H](C)[C@H](NC(=O)[C@H]([C@@H](C)CC)N(C)C(C)=O)C(=O)NC(CO)C(=O)NC(CC(C)C)C(=O)[C@@]1(C)CO1` (single isomer, unassigned), the k obs / 1 in assay [1] is 32000 M⁻¹ s⁻¹; in assay [2], 90 M⁻¹ s⁻¹; in assay [4], 1100 M⁻¹ s⁻¹. In addition, the IC50 in assay [3] was found to be 0.004 µM.

Consider `CC[C@H](C)[C@H](NC(=O)[C@H]([C@@H](C)CC)N(C)C(C)=O)C(=O)NC(C(=O)NC(CC(C)C)C(=O)[C@@]1(C)CO1)[C@@H](C)O` (single isomer, unassigned) [EPOXOMYCIN], for which the k obs / 1 in assay [1] came to 20000 M⁻¹ s⁻¹; in assay [2], 43 M⁻¹ s⁻¹; in assay [4], 310 M⁻¹ s⁻¹. This compound gave an IC50 in assay [3] of 0.004 µM.
